In ChEMBL document CHEMBL1201862, “PubChem BioAssay data set” (2004):
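Dose response: 5 concentrations. Exposure: 48 h. Format: 96-well plates. Endpoint: linear interpolation; highest concentration if not reached. Abbreviation: GI50, concentration required for 50% inhibition of growth.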 Calls of active or inactive are those of the source. Rule as the data show it: active = GI50 up to about 1.1 µM and inactive = higher.

Columns and labels:
Experiment in all cases: NCI-60 cell line screen, 48 h
A498 = system: A498
A549 = system: A549
ACHN = system: ACHN
CCRF-CEM = system: CCRF-CEM
HCT-116 = system: HCT-116
HCT-15 = system: HCT-15
Hs-578T = system: Hs-578T
K562 = system: K562
NCI-H226 = system: NCI-H226
NCI-H522 = system: NCI-H522
OVCAR-3 = system: OVCAR-3
OVCAR-8 = system: OVCAR-8
RPMI-8226 = system: RPMI-8226
SK-OV-3 = system: SK-OV-3
SN12C = system: SN12C
SNB-19 = system: SNB-19
SR = system: SR
UACC-257 = system: UACC-257
UO-31 = system: UO-31

Row | SMILES | GI50 (A498) | GI50 (A549) | GI50 (ACHN) | GI50 (CCRF-CEM) | GI50 (HCT-116) | GI50 (HCT-15) | GI50 (Hs-578T) | GI50 (K562) | GI50 (NCI-H226) | GI50 (NCI-H522) | GI50 (OVCAR-3) | GI50 (OVCAR-8) | GI50 (RPMI-8226) | GI50 (SK-OV-3) | GI50 (SN12C) | GI50 (SNB-19) | GI50 (SR) | GI50 (UACC-257) | GI50 (UO-31)
1 | O=C(C[n+]1ccc2ccccc2c1)c1ccc2ccc3ccccc3c2c1 | 4.94 µM (inactive) | 3.23 µM (inactive) | 2.22 µM (inactive) | 0.815 µM (active) | 0.959 µM (active) | 5.07 µM | 8.32 µM (inactive) | 0.151 µM (active) | 7.94 µM (inactive) | 6.38 µM (inactive) | 4.15 µM (inactive) | 3.21 µM (inactive) | 0.129 µM (active) | 6.82 µM (inactive) | 1.91 µM (inactive) | 2.6 µM (inactive) | 0.406 µM (active) | 2.04 µM (inactive) | 4.69 µM (inactive)
2 | O=C1OC(c2ccc(O)c(-c3ccccc3)c2)(c2ccc(O)c(-c3ccccc3)c2)c2c(Cl)c(Cl)c(Cl)c(Cl)c21 | > 100 µM (inactive) | > 100 µM (inactive) | > 100 µM (inactive) | > 100 µM (inactive) | > 100 µM (inactive) | > 100 µM | > 100 µM (inactive) | > 100 µM (inactive) | > 100 µM (inactive) | > 100 µM (inactive) | > 100 µM (inactive) | > 100 µM (inactive) | > 100 µM (inactive) | > 100 µM (inactive) | > 100 µM (inactive) | > 100 µM (inactive) | > 100 µM (inactive) | > 100 µM (inactive) | > 100 µM (inactive)
3 | COC(=O)C(C)(C)NC(=O)C(Cc1ccccc1)Nc1ncnc2c1ncn2-c1ccc(OC)cc1 (configuration not stated) | 20.1 µM (inactive) | 22.5 µM (inactive) | > 100 µM (inactive) | 13.5 µM (inactive) | 28.2 µM (inactive) | 34.8 µM | 27.8 µM (inactive) | > 100 µM (inactive) | 32.1 µM (inactive) | 13.1 µM (inactive) | 38.8 µM (inactive) | 48.2 µM (inactive) | 72.9 µM (inactive) | 46.8 µM (inactive) | 85.1 µM (inactive) | > 100 µM (inactive) | > 10 µM (inactive) | 39.9 µM (inactive) | 96.4 µM (inactive)
